In patent US6432943B1, “Method for treating sexual dysfunction” (Eli Lilly and Company, priority 1997, dated 2002):

Tests used:
[1] = test system: rats; assay: in vivo animal observation after overdose; design: species or system rat
[2] = test system: muscarinic cholinergic receptor; details: results of pharmacological studies
[3] = test system: clinical subjects; assay: clinical observation of pupil response; details: pupilary dialation was expected
[4] = detection of radiolabelled compound in saliva; assay type: in vivo
Protocol: For example, in the treatment of adult humans, dosages of from about 0.25 to 50 mg, preferably from 1 to 30 mg, and most preferably 1 to 20 mg per day may be used. A once a day dosage is normally sufficient, although divided doses may be administered. For treatment of cognitive dysfunction, a dose range of from 1 to 30 mg, preferably 1 to 20 mg per day is suitable.

Row | SMILES | observation in rats exposed to an overdose [1] | muscarinic cholinergic receptor activity [2] | pupil response in clinical subjects [3] | detection in saliva [4]
1 | Cc1cc2c(s1)Nc1ccccc1N=C2N1CCN(C)CC1 | significant salivation | has muscarinic cholinergic receptor activity | pupilary constriction | –
2 | Cc1cc2c(s1)Nc1ccccc1N=C2N1CCN(C)CC1 [2-methyl-4-(4-methyl-1-piperazinyl)-10H-thieno-[2,3-b][1,5]benzodiazepine] | – | – | – | can be detected in the saliva
